Experimental data: patent US9517265B2, “Methods for the prevention and/or treatment of memory impairment” (The Governing Council of the University of Toronto, priority 2010, dated 2016)

Tests used:
[1] = test system: α1, α2 and α3 subunit-containing GABAA receptors; details: 1 mg/kg intraperitoneal; cited from earlier work
[2] = Analysis of blood gases during isoflurane anesthesia; type: in vivo, mice; details: for pH: n = 6
Source text: A needle was carefully inserted into the heart and blood was extracted into a heparinized syringe. The collected blood was immediately placed on ice and transported to a blood gas analyzer (ABL 700 series, Radiometer, Copenhagen, Denmark).

[3] = Core (rectal) temperature during anesthesia; type: in vivo, mice
Method: Mice were placed in the air-tight acrylic glass chamber for administration of the anesthetic; a rectal probe was inserted after the mice lost their righting reflex and rectal temperature was […] to measure temperature between 5 min and 1 h. The rectal probe was not inserted prior to the 5 min mark to ensure the mice were adequately anesthetized and not discomforted.

[4] = Balance beam and tail flick 1 h after isoflurane; type: in vivo, mice; details: 1 h after isoflurane or vehicle
Method: Mice were gently held by the scruff and allowed free movement of the tail. The tip of the tail was inserted to about 1 cm depth into a beaker of water (49° C.). The latency for the mouse to remove its tail from the water was recorded and used as an indication of nociception. […] Indicators of motor coordination and mobility include the time for the mice to spontaneously cross the beam, and the number of times the hindfoot slipped off the beam. Average values of three repetitions for each mouse were reported.

[5] = cited from earlier work

**Q.** For `CCOC(=O)c1ncn2c1[C@@H]1CCCN1C(=O)c1cc(OC)ccc1-2` [L-655,708], which “occupancy of α1, α2 and α3 subunit-containing GABAA receptors” value [1] is on record?
**A.** 18%

**Q.** With `FC(F)OC(Cl)C(F)(F)F` (stereo not drawn) [isoflurane] as the molecule, how does the “hypoxia (in words)” value ([2]; isoflurane 1 MAC in 30% O2 for 1 h or 5 min) read?
**A.** Hypoxia did not occur

**Q.** And the pCO2 ([2]; isoflurane 5 min)?
**A.** 48.6 ± 2.02 mmHg

**Q.** And the pO2 ([2]; isoflurane 5 min)?
**A.** 142 ± 16 mmHg

**Q.** What about the pH ([2]; isoflurane 5 min) of the same molecule?
**A.** 7.28 ± 0.02

**Q.** And the pCO2 ([2]; isoflurane 60 min)?
**A.** 54.2 ± 12.3 mmHg

**Q.** And the pO2 ([2]; isoflurane 60 min)?
**A.** 193 ± 31 mmHg

**Q.** And the pH ([2]; isoflurane 60 min)?
**A.** 7.23 ± 0.08

**Q.** And the rectal temperature ([3]; 5 min after introduction into the anesthetic chamber)?
**A.** 37.8±0.4 °C

**Q.** And the rectal temperature ([3]; 1 h after induction)?
**A.** 37.8±0.4 °C

**Q.** And the “balance beam crossing times and foot slips (in words)” value [4]?
**A.** No differences were observed between treatment groups

**Q.** And the “latency to tail flick (in words)” value [4]?
**A.** No differences were detected in the latency to tail flick

**Q.** And the “concentration required to impair the freezing response” value ([5]; administered during contextual fear learning)?
**A.** 0.6%

**Q.** And the “concentration required for memory blockade during anesthesia” value ([5]; rat, in vivo)?
**A.** 0.4%

**Q.** What about the “threshold concentration that impaired memory performance during fear conditioning” value ([5]; rats) of the same molecule?
**A.** 0.2%
